Our source for the Bliss interaction score values is the supplement of paper PMC10627819.

Common to all, as to assay: Bliss interaction score (quartile over a dose matrix) (fitness difference); higher = more antagonism (negative = synergy)
The subject of one test is S. pneumoniae D39V. The method in brief: (§1)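 The Bliss score is observed minus expected fitness, where expected fitness is the product of the single-drug fitness values inferred from the combination data. Fitness is the OD595 at the onset of stationary phase over the plate's robust no-drug mean, capped at 1. Scores are summarised by quartiles over technical, biological and donor/recipient replicates.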

Another test relates to S. aureus DSM 20231. The gist of the method: as §1
The subject of a further test is B. subtilis 168. The gist of the method: as §1
For another test, the system named is S. aureus Newman. The gist of the method:
as §1
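Note: first quartile when negative (synergy) and third quartile when positive (antagonism).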

In the case of `N#CC(C#N)=NNc1cccc(Cl)c1` [CCCP] + CCC[C@@H]1C[C@@H](C(=O)N[C@@H]([C@H]2O[C@H](SC)[C@H](O)[C@@H](O)[C@H]2O)[C@H](C)Cl)N(C)C1 [Clindamycin], the Bliss interaction score with S. pneumoniae D39V was -0.138; in the test with S. aureus DSM 20231, 0.0216; in the test on B. subtilis 168, -0.0426; with S. aureus Newman it was 0.0938.

`N#CC(C#N)=NNc1cccc(Cl)c1` [CCCP] + CCN(CC)CCOC(=O)c1ccc(N)cc1 [Procaine]: the Bliss interaction score in the test on S. pneumoniae D39V is 0.0668; in the test on S. aureus DSM 20231, -0.0522; with B. subtilis 168 it was 0.0328; in the test on S. aureus Newman, -0.0249.

With `N#CC(C#N)=NNc1cccc(Cl)c1` [CCCP] + CC[C@H]1OC(=O)[C@H](C)C(=O)[C@H](C)[C@@H](O[C@@H]2O[C@H](C)C[C@H](N(C)C)[C@H]2O)[C@](C)(OC)C[C@@H](C)C(=O)[C@H](C)[C@H]2N(CCCCn3cnc(-c4cccnc4)c3)C(=O)O[C@]12C [Telithromycin], the Bliss interaction score with S. pneumoniae D39V was -0.0245; in the test with S. aureus DSM 20231, -0.0246; in the test with B. subtilis 168, -0.0441; in the test with S. aureus Newman, -0.0206.

In the case of `N#CC(C#N)=NNc1cccc(Cl)c1` [CCCP] + CC[C@H]1OC(=O)[C@H](C)[C@@H](O[C@H]2C[C@@](C)(OC)[C@@H](O)[C@H](C)O2)[C@H](C)[C@@H](O[C@@H]2O[C@H](C)C[C@H](N(C)C)[C@H]2O)[C@](C)(O)C[C@@H](C)C(=O)[C@H](C)[C@@H](O)[C@]1(C)O [Erythromycin], the Bliss interaction score in the test on S. pneumoniae D39V is -0.0863; in the test with S. aureus DSM 20231, 0.023; with B. subtilis 168 it was -0.0587; with S. aureus Newman, 0.0472.

Take `N#CC(C#N)=NNc1cccc(Cl)c1` [CCCP] + CC[C@H]1OC(=O)[C@H](C)[C@@H](O[C@H]2C[C@@](C)(OC)[C@@H](O)[C@H](C)O2)[C@H](C)[C@@H](O[C@@H]2O[C@H](C)C[C@H](N(C)C)[C@H]2O)[C@](C)(OC)C[C@@H](C)C(=O)[C@H](C)[C@@H](O)[C@]1(C)O [Clarithromycin]: the Bliss interaction score in the test on S. pneumoniae D39V is -0.0531; in the test on S. aureus DSM 20231 it was -0.0461; with B. subtilis 168 it was 0.0363; in the test with S. aureus Newman, 0.0706.

As for `N#CC(C#N)=NNc1cccc(Cl)c1` [CCCP] + CN1C2=CC=CC=C2N=C3C1=CC=CC3=O [Pyocyanin], the Bliss interaction score in the test with S. pneumoniae D39V was -0.0451; in the test on S. aureus DSM 20231 it was -0.0215; with B. subtilis 168, -0.0772; in the test on S. aureus Newman, -0.0376.

Turning to `N#CC(C#N)=NNc1cccc(Cl)c1` [CCCP] + CN(C)C(=O)C(CCN1CCC(O)(c2ccc(Cl)cc2)CC1)(c1ccccc1)c1ccccc1 [Loperamide], the Bliss interaction score in the test with S. pneumoniae D39V is -0.227; with S. aureus DSM 20231 it was -0.0407; in the test on B. subtilis 168, 0.0251; with S. aureus Newman, 0.0942.

For `N#CC(C#N)=NNc1cccc(Cl)c1` [CCCP] + CN(C)[C@@H]1C(O)=C(C(N)=O)C(=O)[C@@]2(O)C(O)=C3C(=O)c4c(O)ccc(Cl)c4[C@@](C)(O)[C@H]3C[C@@H]12 [Clortetracycline], the Bliss interaction score is -0.0306 with S. pneumoniae D39V, 0.0445 with S. aureus DSM 20231, -0.0685 in the test on B. subtilis 168 and 0.0865 in the test with S. aureus Newman.

As for `N#CC(C#N)=NNc1cccc(Cl)c1` [CCCP] + CN(C)c1cc(NC(=O)CNC(C)(C)C)c(O)c2c1C[C@H]1C[C@H]3[C@H](N(C)C)C(O)=C(C(N)=O)C(=O)[C@@]3(O)C(O)=C1C2=O [Tigecycline], the Bliss interaction score is 0.102 in the test with S. pneumoniae D39V, 0.0272 in the test with S. aureus DSM 20231, -0.0512 with B. subtilis 168 and -0.0359 in the test with S. aureus Newman.

In the case of `N#CC(C#N)=NNc1cccc(Cl)c1` [CCCP] + CN(N=O)C(=O)N[C@@H](C=O)[C@@H](O)[C@H](O)[C@H](O)CO [Streptozotocin], the Bliss interaction score in the test with S. pneumoniae D39V is 0.0737; in the test with S. aureus DSM 20231, -0.0689; in the test with B. subtilis 168 it was 0.0172; in the test on S. aureus Newman, -0.0707.

On to `N#CC(C#N)=NNc1cccc(Cl)c1` [CCCP] + CN[C@@H]1[C@H](O)[C@H](NC)[C@H]2O[C@@]3(O)C(=O)C[C@@H](C)O[C@H]3O[C@@H]2[C@H]1O [Spectinomycin], for which the Bliss interaction score is 0.0475 in the test on S. pneumoniae D39V, 0.0771 in the test with S. aureus DSM 20231, 0.0317 in the test on B. subtilis 168 and -0.0505 in the test with S. aureus Newman.

Take `N#CC(C#N)=NNc1cccc(Cl)c1` [CCCP] + CN[C@@H]1[C@H](O[C@H]2[C@H](O[C@H]3[C@H](O)[C@@H](O)[C@H](N=C(N)N)[C@@H](O)[C@@H]3N=C(N)N)O[C@@H](C)[C@]2(O)C=O)O[C@@H](CO)[C@H](O)[C@H]1O [Streptomycin]: the Bliss interaction score was determined as 0.0786 in the test on S. pneumoniae D39V, 0.0501 in the test on S. aureus DSM 20231, 0.48 with B. subtilis 168 and 0.0563 with S. aureus Newman.

In the case of `N#CC(C#N)=NNc1cccc(Cl)c1` [CCCP] + CN[C@H](CC(C)C)C(=O)N[C@H]1C(=O)N[C@@H](CC(N)=O)C(=O)N[C@H]2C(=O)N[C@H]3C(=O)N[C@H](C(=O)N[C@H](C(=O)O)c4cc(O)cc(O)c4-c4cc3ccc4O)[C@H](O)c3ccc(c(Cl)c3)Oc3cc2cc(c3O[C@@H]2O[C@H](CO)[C@@H](O)[C@H](O)[C@H]2O[C@H]2C[C@](C)(N)[C@H](O)[C@H](C)O2)Oc2ccc(cc2Cl)[C@H]1O [Vancomycin], the Bliss interaction score is 0.0815 in the test on S. pneumoniae D39V, 0.0309 in the test on S. aureus DSM 20231, 0.0489 with B. subtilis 168 and -0.0614 in the test on S. aureus Newman.

`N#CC(C#N)=NNc1cccc(Cl)c1` [CCCP] + CN[C@H](CC(C)C)C(=O)N[C@H]1C(=O)N[C@@H](CC(N)=O)C(=O)N[C@H]2C(=O)N[C@H]3C(=O)N[C@H](C(=O)N[C@H](C(=O)O)c4cc(O)cc(O)c4-c4cc3ccc4O)[C@H](O[C@H]3C[C@](C)(N)[C@@H](O)[C@H](C)O3)c3ccc(c(Cl)c3)Oc3cc2cc(c3O[C@@H]2O[C@H](CO)[C@@H](O)[C@H](O)[C@H]2O[C@H]2C[C@](C)(NCc3ccc(-c4ccc(Cl)cc4)cc3)[C@@H](O)[C@H](C)O2)Oc2ccc(cc2Cl)[C@H]1O [Oritavancin]: the Bliss interaction score was 0.0676 in the test on S. pneumoniae D39V, -0.0305 in the test on S. aureus DSM 20231, 0.0275 in the test with B. subtilis 168 and 0.0576 with S. aureus Newman.

As to `N#CC(C#N)=NNc1cccc(Cl)c1` [CCCP] + CO/N=C(\C(=O)N[C@@H]1C(=O)N2C(C(=O)O)=C(COC(C)=O)CS[C@H]12)c1csc(N)n1 [Cefotaxime], the Bliss interaction score with S. pneumoniae D39V was -0.112; with S. aureus DSM 20231 it was 0.0268; with B. subtilis 168, 0.139; in the test with S. aureus Newman, 0.0493.

For `N#CC(C#N)=NNc1cccc(Cl)c1` [CCCP] + CO/N=C(\C(=O)N[C@@H]1C(=O)N2C(C(=O)O)=C(COC(N)=O)CS[C@H]12)c1ccco1 [Cefuroxime], the Bliss interaction score in the test with S. pneumoniae D39V was 0.0309; with S. aureus DSM 20231 it was -0.256; in the test with B. subtilis 168, 0.0873; in the test on S. aureus Newman it was -0.112.

In the case of `N#CC(C#N)=NNc1cccc(Cl)c1` [CCCP] + CO/N=C(\C(=O)N[C@@H]1C(=O)N2C(C(=O)[O-])=C(C[N+]3(C)CCCC3)CS[C@H]12)c1csc(N)n1 [Cefepime], the Bliss interaction score in the test with S. pneumoniae D39V is -0.0827; in the test with S. aureus DSM 20231, 0.1; with B. subtilis 168, 0.0769; in the test on S. aureus Newman, 0.0498.

In the case of `N#CC(C#N)=NNc1cccc(Cl)c1` [CCCP] + CO[C@@H]1[C@@H](OC(N)=O)[C@@H](O)[C@H](Oc2ccc3c(O)c(NC(=O)c4ccc(O)c(CC=C(C)C)c4)c(=O)oc3c2C)OC1(C)C [Novobiocin], the Bliss interaction score was 0.164 in the test on S. pneumoniae D39V, 0.0738 in the test with S. aureus DSM 20231, -0.144 with B. subtilis 168 and 0.0377 with S. aureus Newman.
